Publication PMC4666608, “Metabolic Profiling of Chicken Embryos Exposed to Perfluorooctanoic Acid (PFOA) and Agonists to Peroxisome Proliferator-Activated Receptors” (PLoS ONE, 2015)
Marks after values point to notes of the source that are not given here.

System: chicken embryos
Experiment: Metabolic profiling of allantoic fluid (GC-MS, LC-MS, OPLS-DA)
Type: in vivo, Gallus gallus domesticus
Details: 150 μg/egg
Protocol: Controls were injected with 20 μL vehicle only (DMSO).
Plasma was collected and stored at -70°C.
Metabolites in allantoic fluid and blood plasma were analyzed using gas chromatography-mass spectrometry (GC-MS) and liquid chromatography-mass spectrometry (LC-MS) as described in S1 Methods. Prior to GC-MS and LC-MS analysis, allantoic fluid (100 μL) and blood plasma (50 μL) were extracted. To each sample, 900 μL (allantoic fluid) or 450 μL (blood plasma) of extraction buffer (90/10 v/v methanol:water) including all internal standards were added. Standards for GC-MS were proline, succinic acid, glutamic acid, salicylic acid, alpha-ketoglutarate, putrescine, myristic acid, hexadecanoic acid, cholesterol, and sucrose. Standards for LC-MS were Val-Tyr-Val, Leu-enkephalin, sulfadimethoxine and reserpine. Samples were homogenized by shaking in a bead mill at a frequency of 30 Hz for 3 minutes and proteins were precipitated at +4°C on ice. The samples were centrifuged at +4°C, 14000 rpm, for 10 min. Then, 200 μL supernatant was transferred to a GC microvial and 200 μL was transferred to an LC microvial, and solvents were evaporated. Samples from the four replicate experiments were analyzed using in chronological order and within each replicate experiment the run order of the individual samples was randomized.
Multivariate statistical analyses of metabolite profiles were performed using the software package SIMCA-P version 13.0 (Umetrics, Umeå, Sweden). Data was centered and scaled to variance 1 (UV scaling) prior to modelling. To reduce unintended systematic variation caused by sample processing and instrument drift, GC-MS and LC-MS metabolite amounts (expressed as the area under the chromatographic peak) were normalized by Orthogonal Partial Least Squares analysis (O2PLS) prior to multivariate data analysis. O2PLS finds common (predictive) and unique (orthogonal) variation in two data matrices. If applied to find the common variation between the data matrix containing the measured metabolite concentrations and a matrix containing only the internal standards, the only common (predictive) variation expected is due to the unintended systematic variation. By deleting the contribution of the predictive latent variables, that variation can be removed from the data. Models obtained after this normalization contain in general less latent variables, and this simplification helps when deciding on the number of latent variables to be used. Following normalization, GC-MS and LC-MS data were analyzed together. Initially, a global Principal Component Analysis (PCA) was performed to get an overview of groups and trends and to identify outliers. Projections to latent structures by means of Orthogonal Partial Least Squares Discriminant Analysis (OPLS-DA) was used to model the relationship between the X-matrix (metabolite concentrations) and the Y matrix (class, i.e. exposure group or sex), and to find x-variables that were related to class belonging. OPLS-DA is a supervised prediction and regression method that rotates the projection plane to find the maximum covariance between the data and the class assignment. All groups were first analyzed together in a 5-class OPLS-DA and then each exposure group was analyzed against the control group in a 2-class OPLS-DA. Sex differences were analyzed both using the whole data set and in each group separately using 2-class OPLS-DA, with females and males as the two classes. Only variables with 80% or more nonzero values were included in the statistical models. […] The validity of each model was also checked using CV-ANOVA (ANOVA of the cross-validated residuals). A significance level of p < 0.05 was used. For each model, R ^2 X, R ^2 Y and Q ^2 values were calculated, where R ^2 X is a measure of the fraction of x variation modeled in the extracted latent variables, R ^2 Y is a measure of the fraction of y variation modeled and Q ^2 is an estimate of the predictive ability of the model and is calculated by cross-validation. […]

[1] = GC, tentative 2-Oxovaleric acid

Structure (SMILES): CN(CCOc1ccc(CC2SC(=O)NC2=O)cc1)c1ccccn1 (centres unmarked) [Rosiglitazone, rosiglitazone, reference compound]
- Mean concentration relative to control, feature Win004_C08 (GC): 1.2**
- Mean concentration relative to control, feature Win005_C07 (GC): 1.2*
- Mean concentration relative to control, feature Win008_C06 (GC): 1.7***
- Mean concentration relative to control, feature Win022_C01 (GC): 2.2***
- Mean concentration relative to control, feature Win023_C06 (GC): 1.8*
- Mean concentration relative to control, feature win006_C01 (GC): 2.3***
- Mean concentration relative to control, feature Win008_C07 (GC, tentative 1-Aminocyclopropanecarboxylic acid): 1.1
- Mean concentration relative to control, feature Win023_C03 (GC, tentative 2-Oxoglutaric acid): 2.5***
- Mean concentration relative to control, feature Win007_C09 [1]: 1.3***
- Mean concentration relative to control, feature Win008_C05 [1]: 1.4***
- Mean concentration relative to control, feature Win018_C04 (GC, tentative 3-Amino-2-piperidone): 1
- Mean concentration relative to control, feature Win007_C03 (GC, tentative 3-Hydroxybutanoic acid): 1.0
- Mean concentration relative to control, feature Win042_C02 (GC, tentative Cystathionine): 1.1
- Mean concentration relative to control, feature Win009_C03 (GC, tentative Ketoleucine): 1.3**
- Mean concentration relative to control, feature Win008_C04 (GC, tentative Malonic acid): 1.0
- Mean concentration relative to control, feature Win005_C03 (GC, tentative Oxalic acid): 0.7**
- Mean concentration relative to control, feature Win013_C05 (GC, tentative Succinic acid): 1.1*
- Mean concentration relative to control, feature 134.0239@1.1350567 (LC): 1.4*
- Mean concentration relative to control, feature 145.0538@3.072527 (LC): 1.2
- Mean concentration relative to control, feature 147.0328@3.0722888 (LC): 1.2
- Mean concentration relative to control, feature 160.0323@1.1950632 (LC): 1.2***
- Mean concentration relative to control, feature 173.0488@3.0734746 (LC): 1.2
- Mean concentration relative to control, feature 176.0952@1.3890611 (LC): 0.4*
- Mean concentration relative to control, feature 178.0428@1.7582192 (LC): 1.3**
- Mean concentration relative to control, feature 180.0048@4.421465 (LC): 0.9***
- Mean concentration relative to control, feature 189.1159@1.9209185 (LC): 0.7**
- Mean concentration relative to control, feature 197.0639@2.1181405 (LC): 1.2***
- Mean concentration relative to control, feature 201.012@3.046474 (LC): 1.1
- Mean concentration relative to control, feature 202.0429@2.9548414 (LC): 1.3***
- Mean concentration relative to control, feature 205.0533@4.421879 (LC): 0.9***
- Mean concentration relative to control, feature 214.016@2.1190732 (LC): 1.2**
- Mean concentration relative to control, feature 226.0107@4.421457 (LC): 0.9***
- Mean concentration relative to control, feature 236.0816@3.0720985 (LC): 1.2
- Mean concentration relative to control, feature 241.0551@2.3510706 (LC): 1.3***
- Mean concentration relative to control, feature 243.1118@2.1537287 (LC): 0.7***
- Mean concentration relative to control, feature 244.9972@4.421603 (LC): 0.96*
- Mean concentration relative to control, feature 245.1563@2.2907295 (LC): 0.7*
- Mean concentration relative to control, feature 250.0981@3.072492 (LC): 1.2
- Mean concentration relative to control, feature 262.0978@2.7961144 (LC): 1.3*
- Mean concentration relative to control, feature 263.0855@2.2847009 (LC): 1.4**
- Mean concentration relative to control, feature 270.0441@1.1407775 (LC): 0.7*
- Mean concentration relative to control, feature 278.0928@3.0723689 (LC): 1.2
- Mean concentration relative to control, feature 279.1248@2.796395 (LC): 1.4*
- Mean concentration relative to control, feature 280.1425@2.730277 (LC): 1.1**
- Mean concentration relative to control, feature 288.1166@2.9551322 (LC): 1.7**
- Mean concentration relative to control, feature 289.1012@3.249983 (LC): 1.2
- Mean concentration relative to control, feature 289.173@7.5030584 (LC): 0.7***
- Mean concentration relative to control, feature 294.1242@2.3692534 (LC): 0.7***
- Mean concentration relative to control, feature 302.0508@3.0722616 (LC): 1.1
- Mean concentration relative to control, feature 305.1682@5.353517 (LC): 1.2
- Mean concentration relative to control, feature 305.1684@5.2955093 (LC): 1.2
- Mean concentration relative to control, feature 308.073@4.4211636 (LC): 0.9***
- Mean concentration relative to control, feature 310.1181@1.5090439 (LC): 0.7***
- Mean concentration relative to control, feature 316.0389@3.0725708 (LC): 1.2
- Mean concentration relative to control, feature 320.0626@3.0729218 (LC): 1.1
- Mean concentration relative to control, feature 325.1114@2.1190624 (LC): 1.6***
- Mean concentration relative to control, feature 325.1115@2.3554378 (LC): 1.5**
- Mean concentration relative to control, feature 333.1335@2.8639288 (LC): 0.7***
- Mean concentration relative to control, feature 333.2005@6.5291867 (LC): 1.1
- Mean concentration relative to control, feature 335.1866@4.508565 (LC): 0.7***
- Mean concentration relative to control, feature 337.1651@1.8737898 (LC): 1.6***
- Mean concentration relative to control, feature 344.1424@2.348947 (LC): 1.5**
- Mean concentration relative to control, feature 348.0553@3.0730357 (LC): 1.1
- Mean concentration relative to control, feature 349.1651@2.4087605 (LC): 1
- Mean concentration relative to control, feature 357.1997@6.9691257 (LC): 0.8*
- Mean concentration relative to control, feature 371.1513@3.0009465 (LC): 1.4**
- Mean concentration relative to control, feature 375.1819@3.672254 (LC): 0.9
- Mean concentration relative to control, feature 394.167@3.9552917 (LC): 0.7*
- Mean concentration relative to control, feature 414.1482@2.118972 (LC): 1.5***
- Mean concentration relative to control, feature 466.0837@2.1187525 (LC): 1.5***
- Mean concentration relative to control, feature 488.0753@4.419585 (LC): 0.8***
- Mean concentration relative to control, feature 498.1003@2.1184251 (LC): 1.4***
- Mean concentration relative to control, feature 507.1682@2.1238236 (LC): 1.3*
- Mean concentration relative to control, feature 580.1426@3.0726147 (LC): 1.3
- Mean concentration relative to control, feature 582.1578@2.1747615 (LC): 1.8***
- Mean concentration relative to control, feature 588.1751@2.1182237 (LC): 1.5***
- Mean concentration relative to control, feature 594.1337@3.0724604 (LC): 1.3
- Mean concentration relative to control, feature 604.1486@2.1174603 (LC): 1.5***
- Mean concentration relative to control, feature 623.183@2.1249466 (LC): 1.8***
- Mean concentration relative to control, feature 668.2625@6.4379454 (LC): 1.04**
- Mean concentration relative to control, feature 155.0353@0.6447272 (LC, suggested C3H10NO4P): 0.4*
- Mean concentration relative to control, feature 345.0497@1.1234403 (LC, suggested C10H12N5O7P): 1.6***
- Mean concentration relative to control, feature 337.0259@4.4213357 (LC, suggested C13H11N3O4S2): 0.9***
- Mean concentration relative to control, feature 344.1427@2.1164653 (LC, suggested C13H20N4O7): 1.6***
- Mean concentration relative to control, feature 331.184@6.373359 (LC, suggested C13H25N5O5): 1
- Mean concentration relative to control, feature 361.2026@5.6644735 (LC, suggested C16H31N3O4S): 0.7**
